Results: patent publication US20220211037A1, “BIOSENSORS FOR DROUGHT STRESS IN PLANTS” (The Regents of the University of California, priority 2019, published 2022)
Read-outs that look alike come from different tables or passages of the source.

Experiments:
PYL3-Cy5.5 homodimers [1] = target: T1, PYL3-Cy5.5 homodimers (Arabidopsis thaliana, UniProt Q9SSM7); test: Fluorescence of PYL3-Cy5.5 as a function of ABA concentration (self-quenching); format: biochemical
T1 construct: made in house; host or cells: E. coli BL21[DE3], pET28
T1 sequence (Q9SSM7 1-209): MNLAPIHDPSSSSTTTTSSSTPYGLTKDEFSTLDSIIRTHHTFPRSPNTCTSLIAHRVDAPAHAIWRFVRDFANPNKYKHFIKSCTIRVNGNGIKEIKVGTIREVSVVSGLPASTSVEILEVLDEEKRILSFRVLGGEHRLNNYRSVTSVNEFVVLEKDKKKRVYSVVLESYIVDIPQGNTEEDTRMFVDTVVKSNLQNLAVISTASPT
Procedure: (§1) UV-Vis absorption measurements were performed on PYL3-Cy5.5, PYL3-BHQ3, and a 1:1 mixture of PYL3 containing PYL3-Cy5.5 and PYL3-BHQ3 (Shimadzu UV-Vis-NIR spectrophotometer, UV1700). […] Static light scattering (SLS) was used to determine the average molar mass (Malvern Zetasizer Nano S90 fitted with a 633 nm He—Ne laser). The mass of PYL3, PYL3-Cy5.5 and PYL3-BHQ3 was measured using Bruker UltraFlextreme MALDI TOF. Samples for MALDI-TOF measurement were prepared using a dried droplet method in a 2,5-Dihydroxyacetophenone (2,5-DHAP) matrix. The mass spectra were acquired with laser repetition frequency of 0.7-1 kHz.
Fluorescence from PYL3 and BHQ3-PYL3 homodimers in aqueous solution is weak, whereas fluorescence from PYL3-Cy5.5 homodimers (FIG. 2B) was as similarly intense as that of Cy5.5. […] If there is no change to the fluorescence intensity, then no self-quenching occurs. […] This quenching efficiency was used to estimate the quenching efficiency between Cy5.5 and BHQ3 in PYL3 heterodimers.

[2] = target: T2, PYL3-Cy5.5 and PYL3-BHQ3 dimers (hetero- and homodimers) (Arabidopsis thaliana, UniProt Q9SSM7); test: Static light scattering (SLS) average molar mass of PYL3-Cy5.5 / PYL3-BHQ3 mixture as a function of ABA concentration; format: biochemical; settings: for PYLs in dimers (hetero- and homodimers, %) / PYLs in monomers (%): calculated using the SLS data
T2 construct: made in house; host or cells: E. coli BL21[DE3], pET28
T2 sequence (Q9SSM7 1-209) 1: T1 sequence (Q9SSM7 1-209)
T2 sequence (Q9SSM7 1-209) 2: T1 sequence (Q9SSM7 1-209)
Procedure: as §1

[3] = target: T3, PYL3-Cy5.5/PYL3-BHQ3 heterodimer mixture (Arabidopsis thaliana, UniProt Q9SSM7); test: Fluorescence of 1:1 PYL3-Cy5.5 / PYL3-BHQ3 mixture as a function of ABA concentration; format: biochemical; settings: for Fluorescence from Cy5.5 in monomers / Sum of Cy5.5 fluorescence / Total fluorescence / Fluorescence from Cy5.5 in heterodimers / Fluorescence from Cy5.5 in homodimers: calculated; for Total fluorescence: BHQ3 concentration attenuation factor 0.27; for Fluorescence from Cy5.5 in heterodimers: FRET quenching factor 0.1; for Fluorescence from Cy5.5 in homodimers: self-quenching factor 0.8
T3 construct: made in house; host or cells: E. coli BL21[DE3], pET28
T3 sequence (Q9SSM7 1-209) 1: T1 sequence (Q9SSM7 1-209)
T3 sequence (Q9SSM7 1-209) 2: T1 sequence (Q9SSM7 1-209)
Procedure: This increase should arise from more dissociated PYL3-Cy5.5/PYL3-BHQ3 monomers, which lead to decreased FRET quenching of Cy5.5 by BHQ3 in the heterodimers and decreased self-quenching from Cy5.5 in PYL3-Cy5.5/PYL3-Cy5.5 homodimers as shown in FIG. 2C. Assuming BHQ3 in PYL3-BHQ3 behaves similarly as free BHQ3 in solutions, BHQ3 concentration dependent attenuation (FIG. 3D) is 64%, i.e., fluorescence is decreased to 36% of the signal of pure Cy5.5, at the BHQ3-PYL3 concentration of 4.0 μM used in the measurements. FRET quenching of Cy5.5 by BHQ3 in heterodimers is assumed to be 90%. […] In calculating the final fluorescence intensities (Total fluorescence) in Table 1, we employ the self-quenching, FRET quenching and BHQ3 concentration-dependent attenuation efficiency of 20%, 90% and 73.2%, respectively. The corresponding factors are 0.8, 0.1 and 0.27, respectively. The BHQ3 concentration dependent attenuation efficiency is slightly higher than 64% measured using a mixture of 4 μM of Cy5.5 and 4 μM BHQ3. The calculated final fluorescence intensities are within the standard deviations of the measured values.
For the data presented in Table 1, a self-quenching efficiency of 20% and BHQ3 concentration dependent quenching shown in FIG. 3C are used for calculation together with a calibrated fluorescence intensity of 79,653 cps from 4.65 μM Cy5.5. Units of fluorescence intensity are counts per second (cps). The values are calculated unless specified otherwise.^a Fluorescence intensity=amount of Cy5.5×calibrated unit fluorescence intensity.^b Fluorescence intensity=amount of Cy5.5×self-quenching factor (0.8)×calibrated unit fluorescence intensity.^c Fluorescence intensity=amount of Cy5.5×FRET quenching factor (0.1)×calibrated unit fluorescence intensity.^d Sum of a, b, and c.^e Total fluorescence=BHQ3 concentration attenuation factor (0.27)×d.

PYL3-Cy5.5 homodimers [4] = target: T1, PYL3-Cy5.5 homodimers; test: Static light scattering (SLS) average molecular mass of PYL3-Cy5.5 as a function of ABA concentration; format: biochemical
Procedure: as §1
Results from Static Light Scattering (SLS) measurements were used to estimate average molecular mass (FIG. 2D) based on molecular motion in solution, although the method is controversial when the molecular mass is on the order of a few thousand atomic mass units.

[5] = target: T4, homodimeric receptor PYL3 (Arabidopsis thaliana, UniProt Q9SSM7); settings: read-out: equilibrium dissociation constant (Kd) of homodimeric receptor PYL3, cited from earlier work
T4 sequence (Q9SSM7 1-209): T1 sequence (Q9SSM7 1-209)

Compound: CC1=CC(=O)CC(C)(C)[C@@]1(O)/C=C/C(C)=C\C(=O)O [ABA, abscisic acid]
- increase of fluorescence intensity of PYL3-Cy5.5 (PYL3-Cy5.5 homodimers [1]; ABA increases from 0.1 μM to 1 mM, on average): 20%
- average molecule mass (SLS) of PYL3-Cy5.5 / PYL3-BHQ3 mixture ([2]; 100 nM ABA): 50 kDa
- Average molar mass (measured, amu) ([2]; ABA 0.1 μM): 51110 amu
- PYLs in dimers (hetero- and homodimers, %) ([2]; ABA 0.1 μM): 98%
- PYLs in monomers (%) ([2]; ABA 0.1 μM): 2%
- Average molar mass (measured, amu) ([2]; ABA 1.0 μM): 47410 amu
- PYLs in dimers (hetero- and homodimers, %) ([2]; ABA 1.0 μM): 84%
- PYLs in monomers (%) ([2]; ABA 1.0 μM): 16%
- Average molar mass (measured, amu) ([2]; ABA 40 μM): 43330 amu
- PYLs in dimers (hetero- and homodimers, %) ([2]; ABA 40 μM): 68%
- PYLs in monomers (%) ([2]; ABA 40 μM): 32%
- Average molar mass (measured, amu) ([2]; ABA 100 μM): 34050 amu
- PYLs in dimers (hetero- and homodimers, %) ([2]; ABA 100 μM): 32%
- PYLs in monomers (%) ([2]; ABA 100 μM): 68%
- Average molar mass (measured, amu) ([2]; ABA 1000 μM): 31080 amu
- PYLs in dimers (hetero- and homodimers, %) ([2]; ABA 1000 μM): 20%
- PYLs in monomers (%) ([2]; ABA 1000 μM): 80%
- ABA concentration the current design can detect [3]: 200 nM
- Fluorescence (measured) ([3]; ABA 0.1 μM): 3960 cps
- Fluorescence from Cy5.5 in monomers ([3]; ABA 0.1 μM): 630 cps
- Sum of Cy5.5 fluorescence ([3]; ABA 0.1 μM): 14553 cps
- Total fluorescence ([3]; ABA 0.1 μM): 4045 cps
- Fluorescence from Cy5.5 in heterodimers ([3]; ABA 0.1 μM): 1575 cps
- Fluorescence from Cy5.5 in homodimers ([3]; ABA 0.1 μM): 12348 cps
- Fluorescence (measured) ([3]; ABA 1.0 μM): 4292 cps
- Fluorescence from Cy5.5 in monomers ([3]; ABA 1.0 μM): 5040 cps
- Sum of Cy5.5 fluorescence ([3]; ABA 1.0 μM): 16974 cps
- Total fluorescence ([3]; ABA 1.0 μM): 4718 cps
- Fluorescence from Cy5.5 in heterodimers ([3]; ABA 1.0 μM): 1350 cps
- Fluorescence from Cy5.5 in homodimers ([3]; ABA 1.0 μM): 10584 cps
- Fluorescence (measured) ([3]; ABA 40 μM): 5301 cps
- Fluorescence from Cy5.5 in monomers ([3]; ABA 40 μM): 10080 cps
- Sum of Cy5.5 fluorescence ([3]; ABA 40 μM): 19741 cps
- Total fluorescence ([3]; ABA 40 μM): 5488 cps
- Fluorescence from Cy5.5 in heterodimers ([3]; ABA 40 μM): 1092 cps
- Fluorescence from Cy5.5 in homodimers ([3]; ABA 40 μM): 8568 cps
- Fluorescence (measured) ([3]; ABA 100 μM): 6711 cps
- Fluorescence from Cy5.5 in monomers ([3]; ABA 100 μM): 21420 cps
- Sum of Cy5.5 fluorescence ([3]; ABA 100 μM): 25866 cps
- Total fluorescence ([3]; ABA 100 μM): 7218 cps
- Fluorescence from Cy5.5 in heterodimers ([3]; ABA 100 μM): 514 cps
- Fluorescence from Cy5.5 in homodimers ([3]; ABA 100 μM): 4032 cps
- Fluorescence (measured) ([3]; ABA 1000 μM): 9494 cps
- Fluorescence from Cy5.5 in monomers ([3]; ABA 1000 μM): 25200 cps
- Sum of Cy5.5 fluorescence ([3]; ABA 1000 μM): 28035 cps
- Total fluorescence ([3]; ABA 1000 μM): 7793 cps
- Fluorescence from Cy5.5 in heterodimers ([3]; ABA 1000 μM): 315 cps
- Fluorescence from Cy5.5 in homodimers ([3]; ABA 1000 μM): 2520 cps
- change of fluorescence intensity of the mixture ([3]; ABA increased from less than one μM to one mM): more than doubled
- increase of fluorescence signal of the mixture ([3]; upon mixing with 100 μM ABA): more than 50%
- PYL3-Cy5.5 in the homodimer form (PYL3-Cy5.5 homodimers [4]; 0.1 μM ABA): 94%
- average molecular mass (SLS) (PYL3-Cy5.5 homodimers [4]; 0.1 μM ABA): 50 kDa
- PYL3-Cy5.5 in the monomeric form (PYL3-Cy5.5 homodimers [4]; 0.1 μM ABA, 51.6 kDa homodimers, 25.8 kDa monomers chosen): 6%
- PYL3-Cy5.5 in the homodimer form (PYL3-Cy5.5 homodimers [4]; 1 mM ABA): 24%
- PYL3-Cy5.5 in the monomeric form (PYL3-Cy5.5 homodimers [4]; 1 mM ABA): 76%
- average molecular mass (SLS) (PYL3-Cy5.5 homodimers [4]; 1 mM ABA): 30 kDa
- decrease of average molecular mass of the species in solution (PYL3-Cy5.5 homodimers [4]; ABA increases from 100 nM to 40 μM): ~20%
- further decrease of average molecular mass of the species in solution (PYL3-Cy5.5 homodimers [4]; ABA increases from 50 to 100 μM): 20%

Compound: PYL3-Cy5.5: PYL3 protein monomer chemically conjugated to the fluorescent molecule Cy5.5
- self-quenching in the PYL3-Cy5.5 homodimers (PYL3-Cy5.5 homodimers [1]; absence of ABA, aqueous solution): at least 20%

Compound: PYL3: Arabidopsis abscisic acid receptor PYL3 (SEQ ID NO:4), recombinant, forms homodimers that monomerize upon ABA binding
- Kd ([5]; at saturating ABA concentrations): 52 µM
- Kd ([5]; without ABA): 7.76 µM
